Data reported in patent US12612375B2, “Antimicrobial and anticancer agents” (Persevere Therapeutics Inc., priority 2021, dated 2026).

Key:
[1] = tested on: Staphylococcus aureus (MRSA); experiment: Agar diffusion test Staphylococcus aureus (MRSA); format: cell-based; conditions: for Inhibition Zone: Staphylococcus aureus (MRSA Nr. 2065), gram-positive
From the text: (§1) Different gram-negative and gram-positive bacteria are used for testing the compounds of the present disclosure: Staphylococcus aureus and Escherichia coli (ATCC-LGC Standards GmbH, Wesel, Germany); Enterococcus faecilis, Enterococcus faecilum, Staphylococcus aureus, Clostridium difficile, Acineobacter baumannii, Pseudomonas aeruginosa, Stenotrophomonas maltophilia, Citrobacter freundii, Escherichia coli, Klebsiella pneomoniae, Morganelle morganii, Bactroides fragilis, Helicobacter pylori (fresh clinical isolates). All isolates are cultured with Müller-Hinton-Agar excluding Bacteroides fragilis and Helcobacter pylori. Bacteroides fragilis is cultured with Müller-Hinton-Agar containing 5% Horseblood and 20 mg/l ß-NAD. Helicobacter pylori is cultured with Chocolat PolyViteX-Agar.
(§2) The antibacterial potential of compounds is examined by the Kirby-Bauer disc diffusion test using Müller-Hington agar. A 10 mm diameter disk soaked in 150 μl of distilled water containing 10 mg of the test substance was placed on Müller-Hington agar (bioMeieux, Geneve, Switzerland) holding a pre-lawn of the according test bacteria. The plates are incubated at 37° C. for 24 hours and the zone of inhibition is recorded. Culture media and sterilized distilled water were used as a control. N-acetylcysteine (NAC) is used as an anti-oxidant control.

Escherichia coli = experiment: Agar diffusion test Escherichia coli; format: cell-based; conditions: for Inhibition Zone: Escherichia coli (ATCC 8739), gram-negative
From the text: as §1, §2

[2] = tested on: all tested cancer cell lines (MDA MB 468 highest, MCC 14.2 lowest response); experiment: BrdU assay for cell proliferation, all tested cancer cell lines (Example 2); format: cell-based, human; conditions: FIG. 3
Method: Cells are seeded individually to obtain a sub confluent monolayer in a 96 well plate format and are incubated for 24 hours prior to treatment. To examine the dose response regarding their anti-proliferative activity, cells are incubated with increasing concentrations (100, 200, 500, 1000, 1500 and 2000 μmol/l) of all different Oxathiazinane derivates and ddH2O as control for 6 h prior BrdU proliferation assay (5-bromo-2-deoxyuridine)-ELISA (Roche Applied Science, Mannheim, Germany) according to the manufacturer's instructions. […] The amount of synthesized DNA is detected using a microplate absorbance reader measuring at 370 nm with a reference wavelength of 492 nm (ASYS, UVM340, Anthos Mikrosysteme GmbH, Krefeld, Germany). BrdU assays are performed with 8 replicates of three independent experiments with consecutive passages.
(§3) Anti-neoplastic activity of compounds 2289, 2293, and 2296 was determined according to the MTT assay and BrdU assay described above.

[3] = tested on: MDA MB 468, HT29, MCC 14.2, Panc TuI; experiment: MTT assay for cell viability, all tested cancer cell lines (Example 2); format: cell-based, human; conditions: FIG. 2
Method: (§4) Cells are seeded individually to obtain a sub confluent monolayer in a 96 well plate format and are incubated for 24 hours prior treatment. To examine a dose response regarding the antineoplastic activity cells are incubated with increasing concentrations (100, 200, 500, 1000, 1500, 2000 μmol/l) of all different Oxathiazinane derivatives and ddH2O as control for 24 and 48 hours. After the exposition time 10 μl MTT (3-(4,5-Dimethylthiazol-2-yl)-2,5-diphenyltetrazoliumbromid) reagent (5 mg/ml) is added and incubated for 2 hours before violet Formazan crystals are dissolved in 100 μl DMSO (Dimethylsulfoxide). Viability of the cells can be analyzed by using a microplate absorbance reader by measuring the OD560 (ASYS, UVM340, Anthos Mikrosystheme GmbH, Germany). The assay is performed using 8 replicates in three independent experiments with consecutive passages.
as §3

[4] = Human fresh blood stability / half-life at 37° C. in vitro; format: in vitro ADME; conditions: for human blood stability profile compared to 2250: K2-EDTA human blood; for half-life compared to the half-life of taurolidine / half-life at 256 μM: human; for half-life at 256 μM: blood
Method: The half-life of each of compounds 2289, 2293, and 2296 in human fresh blood was measured at 37° C. in vitro. For 2289 and 2293 into 2250, K2-EDTA human blood was spiked with 2289 or 2293 at 256 μM; 2250 at 26 μM and 2244 at 26 μM (n=1). The pool remained at 37° C. for 20-25 min and then an aliquot was centrifuged (2500 g for at least 5 minutes at 4° C.). After centrifugation the human plasma was collected and immediately frozen at −80° C. This aliquot corresponded to the T0. The remaining pool was aliquoted and kept at 37° C. An aliquot was collected, centrifuged (2500 g for at least 5 minutes at 4° C.) and the recovered plasma was frozen at −80° C. after at least 0.25, 0.5, 1, 6, 8, 24 and 48 hours. Stability was determined by measuring the 2289 and 2293 peak area at each time point compared to T0. For 2296 into its metabolite 1-hydoxypropane-2-sulfonamide, K2-EDTA human blood was spiked with 2296 at 256 μM and 1-hydroxypropane-2-sulfonamide at 26 μM (n=1). The pool remained at 37° C. for 20-25 min and then an aliquot was centrifuged (2500 g for at least 5 minutes at 4° C.). After centrifugation the human plasma was collected and immediately frozen at −80° C. This aliquot corresponded to the TO. The remaining pool was aliquoted and kept at 37° C. An aliquot was collected, centrifuged (2500 g for at least 5 minutes at 4° C.) and the recovered plasma frozen at −80° C. after at least 0.5, 1, 3, 6, 8 and 24 hours/ Stability was determined by measuring 2296 peak area at each time point compared to T0.

[5] = tested on: Staphylococcus aureus (ATCC 6538); experiment: Agar diffusion test Staphylococcus aureus (ATCC 6538); format: cell-based; conditions: gram-positive
From the text: as §1, §2

Solubility in water = format: physicochemical; conditions: at room temperature
Method: Re-crystallization with, e.g., • Ethanol • Ethyl acetate • Ethyl acetate/light petroleum Physical Properties • Melting range: 79-83° C. • Solubility in water: about 1.5% at room temperature • Melting range: 52-53° C. • Solubility in water: <1.5% at room temperature • Melting range: 74-75° C. • Solubility in water: min. 1% at room temperature

MDA MB 468 cells = experiment: Cell migration assay (scratch of confluent monolayer); format: cell-based, human; conditions: 2 to 5 days, compared to untreated control, semi-quantified (FIG. 1)
Method: Cells are plated into the 60-mm dishes to create a confluent monolayer and are incubated for 24 hours allowing cells to adhere and spread. The required number of cells for a confluent monolayer depends on the particular cell type. After creating a scratch of the cell monolayer, the gaparea is examined by phase-contrast-microscopy. Images are captured at the beginning and at regular intervals during cell migration (48, 72, and 120 hours (5 d)) closing the scratch, to semi-quantify the migration rate of the cells.
Cell migration assay: cell migration of compounds 2289, 2244, 2287, 2255, 2256 compared to non-treated control (NK) and positive control (compound 2250). Comparative compounds 2244, 2287, 2255, 2256 have the following structures:
Using cell migration assays, the migration rate of different cancer cell entities under treatment with 2289, negative control and positive control (2250) was semi-quantified.

Enterococcus faecium = experiment: Agar diffusion test Enterococcus faecium; format: cell-based; conditions: 10 mm disk with 10 mg test substance, 37° C., 24 hours
From the text: as §1, §2

[6] = Human fresh blood stability / half-life at 37° C. in vitro; format: in vitro ADME; conditions: 2296 into 1-hydroxypropane-2-sulfonamide, human blood 37° C., 256 μM, Time 48 h
Enterococcus faecalis = experiment: Agar diffusion test Enterococcus faecalis; format: cell-based; conditions: 10 mm disk with 10 mg test substance, 37° C., 24 hours
From the text: as §1, §2

[7] = previously reported; cited from earlier work
tumor stem cells = experiment: Killing tumor stem cells in tissue culture in vitro; format: cell-based
Method: In some embodiments, the taurolidine, taurultam, or a mixture thereof is administered in a tumor stem cell killing composition at a concentration of about 0.01 to about 500 μg/ml. In some embodiments, the taurolidine, taurultam, or a mixture thereof is administered in a tumor stem cell killing composition at a concentration of about 0.1 to about 100 μg/ml. In some embodiments, the taurolidine, taurultam, or a mixture thereof is administered in a tumor stem cell killing effective composition at a concentration of about 10 to about 50 μg/ml. Taurolidine is effective at killing tumor stem cells in tissue culture in vitro at 0.01 μg/ml.

AsPc1 cells = experiment: MTT cytotoxicity assay AsPc1; format: cell-based; conditions: AsPc1, after 24 h, compared to untreated control (NC), t-test
Method: as §4
A MTT Cytotoxicity assay of the cell line AsPc1 with different oxathiazine derivatives was performed.

[8] = Staphylococcus aureus (MRSA), 10 mm disk with 10 mg test substance, 37° C., 24 hours
[9] = Escherichia coli, 10 mm disk with 10 mg test substance, 37° C., 24 hours
[10] = 2289 or 2293 spiked at 256 μM into K2-EDTA human blood, 37° C., Time 0 h (T0, after 20-25 min at 37° C.)

| human blood stability profile compared to 2250 ([4]; 37° C.) | half-life compared to the half-life of taurolidine [4] | half-life at 256 μM [4] | Solubility in water (Solubility in water) | Compound | zone of inhibition at 10000 µg/disc [1, 8] | zone of inhibition at 10000 µg/disc (Escherichia coli; [9]) | Inhibition Zone [5] | Inhibition Zone (Escherichia coli) | other results |
| --- | --- | --- | --- | --- | --- | --- | --- | --- | --- |
| – | – | – | – | CC1OCCS(=O)(=O)N1C (centres unmarked) [Compound 2287] | < 10 mm | < 10 mm | – | – | – |
| very similar profile | significantly higher | 5 to 6 h | about 1.5% | CC(=O)N1COCCS1(=O)=O [Compound 2289] | 27.5 mm | 18.5 mm | 27.5 mm | 18.5 mm | reduction of proliferating cells (BrdU) [2]: significant reduction of proliferating cells; reduction of living cells (cell viability, MTT) [3]: significant reduction of living cells; % Stability [4, 10]: Not stable-; migration rate (MDA MB 468 cells): lower migration rate |
| – | – | – | – | NS(=O)(=O)CCO [Compound 2244] | – | < 10 mm | – | – | zone of inhibition at 10000 µg/disc (Enterococcus faecium): < 10 mm |
| very similar profile | significantly higher | 5 to 6 h | ≥ 1% | CC1COCNS1(=O)=O (centres unmarked) [Compound 2296] | – | – | 38.0 mm | 23.0 mm | % Stability [6]: 1%; % Stability ([4]; 2296 into 1-hydroxypropane-2-sulfonamide, human blood 37° C., 256 μM, Time 0 h): 100%; % Stability ([4]; 2296 into 1-hydroxypropane-2-sulfonamide, human blood 37° C., 256 μM, Time 0.5 h): 97%; % Stability ([4]; 2296 into 1-hydroxypropane-2-sulfonamide, human blood 37° C., 256 μM, Time 1 h): 92%; % Stability ([4]; 2296 into 1-hydroxypropane-2-sulfonamide, human blood 37° C., 256 μM, Time 3 h): 71%; % Stability ([4]; 2296 into 1-hydroxypropane-2-sulfonamide, human blood 37° C., 256 μM, Time 6 h): 52%; % Stability ([4]; 2296 into 1-hydroxypropane-2-sulfonamide, human blood 37° C., 256 μM, Time 8 h): 42%; % Stability ([4]; 2296 into 1-hydroxypropane-2-sulfonamide, human blood 37° C., 256 μM, Time 24 h): 7%; Inhibition Zone [1]: 43.0 mm |
| – | – | – | – | CN1COCCS1(=O)=O [Compound 2255] | < 10 mm | < 10 mm | – | – | – |
| – | – | – | – | CC1NS(=O)(=O)CCO1 (centres unmarked) [Compound 2256] | < 10 mm | < 10 mm | – | – | – |
| – | – | – | – | O=S1(=O)CCOCN1 [Compound 2250] | – | – | – | – | reduction of proliferating cells (BrdU) [2]: significant reduction of proliferating cells; reduction of living cells (cell viability, MTT) [3]: significant reduction of living cells; Zone of inhibition (Enterococcus faecalis): 42.5 mm); half-life compared to taurolidine [7]: significantly longer half-life; Zone of inhibition [1, 8]: 49.5 mm; migration rate (MDA MB 468 cells): clearly inhibited; Zone of inhibition (Escherichia coli; [9]): 24.5 mm |
| – | – | – | – | O=S1(=O)CCN(CN2CCS(=O)(=O)NC2)CN1 [taurolidine] | – | – | – | – | half-life [7]: about 30 minutes; concentration effective at killing tumor stem cells (tumor stem cells): 0.01 µg/mL |
| very similar profile | significantly higher | 5 to 6 h | < 1.5% | CCC(=O)N1COCCS1(=O)=O [Compound 2293] | – | – | 31.5 mm | 19.5 mm | concentration from which a significant impact on cell viability is shown (AsPc1 cells): ≥ 500 µM; % Stability [4, 10]: Not stable-; Inhibition Zone [1]: 32.5 mm |
